From patent publication US10995101B2, “2-oxo-thiazole derivatives as A2A inhibitors and compounds for use in the treatment of cancers” (iTeos Therapeutics SA, priority 2017, dated 2021)

How the values were obtained:
A2A receptor = A2A receptor (Homo sapiens, UniProt P29274); experiment: Inhibition of cAMP production in HEK cells; assay type: cell-based; details: HEK-293 cells with A2A receptor
in vitro = details: human, Caco-2, pH 7.4
Description: 2 μM dosing solutions for reference compounds and test compounds are prepared by spiking the appropriate volume of intermediate solution to TB with and without 1 μM Zosuquidar. The final concentration of DMSO is no more than 1% (v/v).
Caco-2 cells are grown in MEM supplemented with 2 mM L-glutamine, 10% FBS, 100 U/mL penicillin-G and 100 μg/mL streptomycin. The cells are incubated at 37° C., 5% CO2 and relatively saturated humidity. After reaching 80-90% confluency, the cells are gently detached with 0.05% trypsin-EDTA solution.
TB and dosing solutions were pre-warmed to 37° C. before transport assay. The cell monolayer was washed twice with HBSS containing 10 mM HEPES. For A-B (apical to basolateral) directional transport assay, 75 μL dosing solution is added to the apical well. Fill each basolateral well with 250 μL TB. For B-A (basolateral to apical) directional transport assay, 250 μL of dosing solution is added to the basolateral well after filling each apical well with 75 μL TB. […] The plates are incubated for 120 minutes at 37° C. with 5% CO2 and saturated humidity. The time zero samples are generated by mixing 50 μL initial dosing solution of test compound or reference compound with 100 μL TB and 250 μL quench solution (acetonitrile (ACN) or other appropriate solvent with internal standard(s), based on the bioanalytical method development). At 120 minutes, 150 μL of solution is collected from each A-B receiver well followed by addition of 250 μL quench solution to get A-B receiver sample. And for other samples (A-B donor, B-A donor and receiver), 50 μL of solution is collected from each corresponding well followed by addition of 250 μL quench solution and 100 μL TB. All samples are vortex-mixed and centrifuged at 3220 g for 20 minutes. Subsequently, supernatant is diluted with ultra pure water for LC-MS/MS analysis. The concentrations of test compound in all samples are determined by LC-MS/MS and expressed as peak area ratio of analyte to internal standard.
The concentration of samples is expressed using the peak area ratio of Analyte to Internal Standard (Analyte/IS).
The efflux ratio is calculated using the following equation: Efflux ratio=Papp(A−B)/Papp(B−A) • where Papp (A−B) and Papp (B−A) are the Papp values of compound in Apical to Basolateral and Basolateral to Apical directional transport, respectively.

[1] = IC50 (nM) (3 nM NECA as agonist, 0.1% BSA), 3 nM NECA as agonist, 0.1% BSA
[2] = IC50 (nM) (5 μM Adenosine as agonist, 2.0% HSA), 5 μM Adenosine as agonist, 2.0% HSA
[3] = IC50 (nM) (5 nM NECA as agonist, 2% HSA), 5 nM NECA as agonist, 2% HSA

Sequence of A2A receptor (P29274 whole entry): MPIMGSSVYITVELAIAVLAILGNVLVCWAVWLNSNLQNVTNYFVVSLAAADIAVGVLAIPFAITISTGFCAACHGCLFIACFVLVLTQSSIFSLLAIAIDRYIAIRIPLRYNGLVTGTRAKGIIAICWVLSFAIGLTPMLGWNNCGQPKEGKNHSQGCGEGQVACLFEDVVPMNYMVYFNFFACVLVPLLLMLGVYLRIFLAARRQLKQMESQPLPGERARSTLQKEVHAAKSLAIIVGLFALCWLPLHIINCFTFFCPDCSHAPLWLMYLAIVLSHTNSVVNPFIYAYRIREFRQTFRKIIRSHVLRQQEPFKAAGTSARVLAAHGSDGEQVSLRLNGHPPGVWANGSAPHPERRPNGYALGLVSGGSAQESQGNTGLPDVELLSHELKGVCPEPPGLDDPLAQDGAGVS

Row | Compound | IC50 (A2A receptor; [1]) | IC50 (A2A receptor; [2]) | efflux ratio at 120 min, 2 μM (in vitro) | IC50 (A2A receptor; [3])
1 | Nc1nc2c(sc(=O)n2CCN2CCN(c3ccc(O[C@H]4COC[C@@H]4O)cc3F)CC2)c2nc(-c3ccco3)nn12 [Compound 84, 5-amino-3-(2-(4-(2-fluoro-4-(((3S,4S)-4-hydroxytetrahydrofuran-3-yl)oxy)phenyl)piperazin-1-yl)ethyl)-8-(furan-2-yl)thiazolo[5,4-e][1,2,4]triazolo[1,5-c]pyrimidin-2(3H)-one] | 0.1 nM | 71 nM | 24 | 
2 | Nc1nc2c(sc(=O)n2CCN2CCN(c3cc(O[C@@H]4CCNC4=O)c(F)cc3F)CC2)c2nc(-c3ccco3)nn12 [Compound 96, (R)-5-amino-3-(2-(4-(2,4-difluoro-5-((2-oxopyrrolidin-3-yl)oxy)phenyl)piperazin-1-yl)ethyl)-8-(furan-2-yl)thiazolo[5,4-e][1,2,4]triazolo[1,5-c]pyrimidin-2(3H)-one] | 0.4 nM | 19 nM | 118 | 
3 | Nc1nc2c(sc(=O)n2CCN2CCN(c3cc(C(=O)N4CC[S+]([O-])CC4)c(F)cc3F)CC2)c2nc(-c3ccco3)nn12 [Compound 117, 5-amino-3-(2-(4-(2,4-difluoro-5-(1-oxidothiomorpholine-4-carbonyl)phenyl)piperazin-1-yl)ethyl)-8-(furan-2-yl)thiazolo[5,4-e][1,2,4]triazolo[1,5-c]pyrimidin-2(3H)-one] | 329 nM | 3160 nM | 12 | 
4 | Nc1nc2c(sc(=O)n2CCN2CCN(c3ccc(OCCN4CCNCC4)cc3F)CC2)c2nc(-c3ccco3)nn12 [Compound 27, 5-amino-3-(2-(4-(2-fluoro-4-(2-(piperazin-1-yl)ethoxy)phenyl)piperazin-1-yl)ethyl)-8-(furan-2-yl)thiazolo[5,4-e][1,2,4]triazolo[1,5-c]pyrimidin-2(3H)-one] | 0.3 nM | 112 nM | 187 | 2 nM
5 | CN(C)CCN(C)C(=O)c1cc(N2CCN(CCn3c(=O)sc4c3nc(N)n3nc(-c5ccco5)nc43)CC2)c(F)cc1F [Compound 64, 5-(4-(2-(5-amino-8-(furan-2-yl)-2-oxothiazolo[5,4-e][1,2,4]triazolo[1,5-c]pyrimidin-3(2H)-yl)ethyl)piperazin-1-yl)-N-(2-(dimethylamino)ethyl)-2,4-difluoro-N-methylbenzamide] | 0.6 nM | 36 nM | 60 | 1 nM
6 | Nc1nc2c(sc(=O)n2CCN2CCN(c3ccc(OCCO)cc3)CC2)c2nc(-c3ccco3)nn12 [Compound 9, 5-amino-8-(furan-2-yl)-3-(2-(4-(4-(2-hydroxyethoxy)phenyl)piperazin-1-yl)ethyl)thiazolo[5,4-e][1,2,4]triazolo[1,5-c]pyrimidin-2(3H)-one] | 3.4 nM |  | 8 | 
7 | NC(=O)CNCCOc1ccc(N2CCN(CCn3c(=O)sc4c3nc(N)n3nc(-c5ccco5)nc43)CC2)c(F)c1 [Compound 45, 2-((2-(4-(4-(2-(5-amino-8-(furan-2-yl)-2-oxothiazolo[5,4-e][1,2,4]triazolo[1,5-c]pyrimidin-3(2H)-yl)ethyl)piperazin-1-yl)-3-fluorophenoxy)ethyl)amino)acetamide] | 0.8 nM | 100 nM | 41 | 3 nM
8 | CN(C)CCN(C)C(=O)c1ccc(N2CCN(CCn3c(=O)sc4c3nc(N)n3nc(-c5ccco5)nc43)CC2)c(F)c1 [Compound 56, 4-(4-(2-(5-amino-8-(furan-2-yl)-2-oxothiazolo[5,4-e][1,2,4]triazolo[1,5-c]pyrimidin-3(2H)-yl)ethyl)piperazin-1-yl)-N-(2-(dimethylamino)ethyl)-3-fluoro-N-methylbenzamide] | 0.2 nM | 25 nM | 1750 | 1 nM
9 | Nc1nc2c(sc(=O)n2CCN2CCN(c3ccc(OCC4CCNCC4)cc3F)CC2)c2nc(-c3ccco3)nn12 [Compound 25, 5-amino-3-(2-(4-(2-fluoro-4-(piperidin-4-ylmethoxy)phenyl)piperazin-1-yl)ethyl)-8-(furan-2-yl)thiazolo[5,4-e][1,2,4]triazolo[1,5-c]pyrimidin-2(3H)-one] | 1.2 nM | 300 nM | 472 | 6 nM
10 | N#CCOc1cc(N2CCN(CCn3c(=O)sc4c3nc(N)n3nc(-c5ccco5)nc43)CC2)c(F)cc1F [Compound 74, 2-(5-(4-(2-(5-amino-8-(furan-2-yl)-2-oxothiazolo[5,4-e][1,2,4]triazolo[1,5-c]pyrimidin-3(2H)-yl)ethyl)piperazin-1-yl)-2,4-difluorophenoxy)acetonitrile] | 1.2 nM | 495 nM | 4 | 20 nM
11 | Nc1nc2c(sc(=O)n2CCN2CCN(c3ccc(C(=O)N4CC[S+]([O-])CC4)cc3F)CC2)c2nc(-c3ccco3)nn12 [Compound 125, 5-amino-3-(2-(4-(2-fluoro-4-(1-oxidothiomorpholine-4-carbonyl)phenyl)piperazin-1-yl)ethyl)-8-(furan-2-yl)thiazolo[5,4-e][1,2,4]triazolo[1,5-c]pyrimidin-2(3H)-one] | 2.6 nM | 3620 nM | 127 | 
12 | Nc1nc2c(sc(=O)n2CCN2CCN(c3ccc(OCC(=O)N4CCNCC4)cc3F)CC2)c2nc(-c3ccco3)nn12 [Compound 24, 5-amino-3-(2-(4-(2-fluoro-4-(2-oxo-2-(piperazin-1-yl)ethoxy)phenyl)piperazin-1-yl)ethyl)-8-(furan-2-yl)thiazolo[5,4-e][1,2,4]triazolo[1,5-c]pyrimidin-2(3H)-one] | 0.8 nM | 137 nM | 117 | 2 nM
13 | C[S@@+]([O-])CCOc1ccc(N2CCN(CCn3c(=O)sc4c3nc(N)n3nc(-c5ccco5)nc43)CC2)c(F)c1 (single isomer, unassigned) [Compound 6] | 0.5 nM | 179 nM | 59 | 8 nM
14 | CS(=N)(=O)c1ccc(N2CCN(CCn3c(=O)sc4c3nc(N)n3nc(-c5ccco5)nc43)CC2)c(F)c1 (centres unmarked) [Compound 80, 5-amino-3-(2-(4-(2-fluoro-4-(S-methylsulfonimidoyl)phenyl)piperazin-1-yl)ethyl)-8-(furan-2-yl)thiazolo[5,4-e][1,2,4]triazolo[1,5-c]pyrimidin-2(3H)-one] | 0.4 nM | 146 nM | 149 | 
15 | Nc1nc2c(sc(=O)n2CCN2CCN(c3ccc(O[C@H]4CNC[C@@H]4F)cc3F)CC2)c2nc(-c3ccco3)nn12 [Compound 102, 5-amino-3-(2-(4-(2-fluoro-4-(((3S,4S)-4-fluoropyrrolidin-3-yl)oxy)phenyl)piperazin-1-yl)ethyl)-8-(furan-2-yl)thiazolo[5,4-e][1,2,4]triazolo[1,5-c]pyrimidin-2(3H)-one] | 0.7 nM | 185 nM | 91 | 
16 | NCCNC(=O)COc1ccc(N2CCN(CCn3c(=O)sc4c3nc(N)n3nc(-c5ccco5)nc43)CC2)c(F)c1 [Compound 52, 2-(4-(4-(2-(5-amino-8-(furan-2-yl)-2-oxothiazolo[5,4-e][1,2,4]triazolo[1,5-c]pyrimidin-3(2H)-yl)ethyl)piperazin-1-yl)-3-fluorophenoxy)-N-(2-aminoethyl)acetamide] | 0.3 nM | 26 nM | 34 | 1 nM
